# Source: ChEMBL document CHEMBL1128800, “Diastereoselective synthesis of mixanpril, an orally active dual inhibitor of neutral endopeptidase and angiotensin converting enzyme” (Bioorg Med Chem Lett, 1995)
# Active and inactive are the calls of the source. The calls are words filed in the database; no cut-off is given here.
# Key:
# [1] = biological target: T1, Angiotensin-converting enzyme (Rattus norvegicus) (UniProt P47820); test: […] inhibitory activity against plasmatic angiotensin converting enzyme (ACE) in anaesthetized rats after oral administration of 10 mg/kg dose; assay type: organism-based; parameters: dose 10 mg/kg
# T1 sequence (whole entry): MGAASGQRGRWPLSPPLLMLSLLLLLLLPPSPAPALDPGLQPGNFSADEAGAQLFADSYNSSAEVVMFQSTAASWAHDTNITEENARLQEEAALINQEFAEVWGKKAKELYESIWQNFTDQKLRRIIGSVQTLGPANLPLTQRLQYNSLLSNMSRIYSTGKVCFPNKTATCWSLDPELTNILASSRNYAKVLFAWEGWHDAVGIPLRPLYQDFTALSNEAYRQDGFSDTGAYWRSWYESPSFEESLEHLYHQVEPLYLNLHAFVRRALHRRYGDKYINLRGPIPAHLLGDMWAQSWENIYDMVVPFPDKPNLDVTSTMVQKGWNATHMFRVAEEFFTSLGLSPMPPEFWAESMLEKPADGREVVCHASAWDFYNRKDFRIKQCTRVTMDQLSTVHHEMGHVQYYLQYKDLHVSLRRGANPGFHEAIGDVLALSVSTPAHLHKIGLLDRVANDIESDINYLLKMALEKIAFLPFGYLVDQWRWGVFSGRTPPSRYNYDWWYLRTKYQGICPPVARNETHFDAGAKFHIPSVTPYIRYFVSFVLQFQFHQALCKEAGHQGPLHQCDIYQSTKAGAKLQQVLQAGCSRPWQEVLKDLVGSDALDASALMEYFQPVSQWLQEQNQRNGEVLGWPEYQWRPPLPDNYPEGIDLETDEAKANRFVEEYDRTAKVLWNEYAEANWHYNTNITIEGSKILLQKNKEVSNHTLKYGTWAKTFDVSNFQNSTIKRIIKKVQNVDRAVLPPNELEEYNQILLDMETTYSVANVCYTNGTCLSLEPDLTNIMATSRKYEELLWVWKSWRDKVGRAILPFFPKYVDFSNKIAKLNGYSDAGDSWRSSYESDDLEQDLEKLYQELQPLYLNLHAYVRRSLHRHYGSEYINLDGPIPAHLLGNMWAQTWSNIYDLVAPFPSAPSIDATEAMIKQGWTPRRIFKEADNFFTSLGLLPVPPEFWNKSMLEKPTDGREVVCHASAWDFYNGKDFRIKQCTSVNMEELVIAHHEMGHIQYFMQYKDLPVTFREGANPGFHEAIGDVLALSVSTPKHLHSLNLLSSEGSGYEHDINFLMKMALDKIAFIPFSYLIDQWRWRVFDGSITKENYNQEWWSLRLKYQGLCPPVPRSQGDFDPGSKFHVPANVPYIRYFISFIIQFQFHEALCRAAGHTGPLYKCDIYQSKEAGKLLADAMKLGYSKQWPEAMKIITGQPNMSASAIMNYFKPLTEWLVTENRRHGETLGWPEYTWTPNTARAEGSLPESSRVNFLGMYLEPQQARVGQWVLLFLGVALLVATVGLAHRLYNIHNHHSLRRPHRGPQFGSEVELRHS
# [2] = biological target: T1, Angiotensin-converting enzyme (Rattus norvegicus); test: […] inhibitory activity against plasmatic angiotensin converting enzyme (ACE) in anaesthetized rats after oral administration of 150 mg/kg dose; assay type: organism-based; parameters: dose 150 mg/kg
# [3] = biological target: T1, Angiotensin-converting enzyme (Rattus norvegicus); test: […] inhibitory activity against plasmatic angiotensin converting enzyme (ACE) in anaesthetized rats after oral administration of 25 mg/kg dose; assay type: organism-based; parameters: dose 25 mg/kg
# [4] = biological target: T1, Angiotensin-converting enzyme (Rattus norvegicus); test: Effective dose against plasmatic angiotensin converting enzyme (ACE) in anaesthetized rats; settings: Plasma
# [5] = biological target: T1, Angiotensin-converting enzyme (Rattus norvegicus); test: […] inhibitory activity against plasmatic angiotensin converting enzyme (ACE) in anaesthetized rats after oral administration of 5 mg/kg dose; assay type: organism-based; parameters: dose 5 mg/kg
# [6] = biological target: T1, Angiotensin-converting enzyme (Rattus norvegicus); test: […] inhibitory activity against plasmatic angiotensin converting enzyme (ACE) in anaesthetized rats after oral administration of 50 mg/kg dose; assay type: organism-based; parameters: dose 50 mg/kg
# [7] = biological target: T2, Neprilysin (Rattus norvegicus) (UniProt P07861); test: Tested for inhibitory activity against neutral endopeptidase at a dose of 2.5 mg/kg in rats; Active; assay type: organism-based; parameters: dose 2.5 mg/kg
# T2 sequence (whole entry): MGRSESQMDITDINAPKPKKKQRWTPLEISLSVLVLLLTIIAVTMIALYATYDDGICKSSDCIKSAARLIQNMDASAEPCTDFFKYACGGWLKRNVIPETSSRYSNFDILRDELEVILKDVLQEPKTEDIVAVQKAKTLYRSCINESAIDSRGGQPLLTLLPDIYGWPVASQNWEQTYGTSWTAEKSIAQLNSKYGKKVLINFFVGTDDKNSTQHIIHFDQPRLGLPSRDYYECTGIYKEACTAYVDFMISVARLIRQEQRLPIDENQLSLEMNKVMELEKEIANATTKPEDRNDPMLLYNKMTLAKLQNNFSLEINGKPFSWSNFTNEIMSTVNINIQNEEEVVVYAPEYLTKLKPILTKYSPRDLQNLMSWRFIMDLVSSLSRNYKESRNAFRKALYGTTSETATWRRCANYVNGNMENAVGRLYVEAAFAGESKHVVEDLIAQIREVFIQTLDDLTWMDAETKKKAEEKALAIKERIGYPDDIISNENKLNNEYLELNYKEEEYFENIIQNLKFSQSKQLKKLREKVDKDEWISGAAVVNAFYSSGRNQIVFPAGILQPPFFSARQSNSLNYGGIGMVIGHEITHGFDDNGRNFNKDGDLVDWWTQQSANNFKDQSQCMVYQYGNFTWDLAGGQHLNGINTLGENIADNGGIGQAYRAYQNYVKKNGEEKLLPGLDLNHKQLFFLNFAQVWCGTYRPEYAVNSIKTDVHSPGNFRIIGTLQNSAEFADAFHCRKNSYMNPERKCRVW
# [8] = biological target: T1, Angiotensin-converting enzyme (Rattus norvegicus); test: […] inhibitory activity against plasmatic angiotensin converting enzyme (ACE) in anaesthetized rats after oral administration of 2.5 mg/kg dose; assay type: organism-based; parameters: dose 2.5 mg/kg
# [9] = biological target: T1, Angiotensin-converting enzyme (Rattus norvegicus); test: […] inhibitory activity against plasmatic angiotensin converting enzyme (ACE) in anaesthetized rats after oral administration of 100 mg/kg dose; assay type: organism-based; parameters: dose 100 mg/kg
structure (smiles),measurement,setting,value
CC(NC(=O)C(CSC(=O)c1ccccc1)C(C)c1ccccc1)C(=O)O (centres undefined),inhibition,[1],50%
same,inhibition,[2],82%
same,inhibition,[3],55%
same,ED50,[4],12 mg/kg
same,inhibition,[5],35%
same,inhibition,[6],65%
same,Activity,[7],Active
same,inhibition,[8],25%
same,inhibition,[9],70%
